Results reported in patent publication US12257253B2, “Triamterene or nolatrexed for use in the treatment of phenylketonuria” (SOM INNOVATION BIOTECH, S.A., priority 2019, dated 2025).
Counter-ions that a name gives are not always drawn.

Tests used:
Format in all cases: cell-based
Arg261Gln (R261Q) PAH [1] = molecular target: T1, Arg261Gln (R261Q) PAH (Homo sapiens (Human), UniProt P00439, R261Q); assay: Phenylalanine hydroxylase enzyme activity assay in transfected COS7 cells; details: compound 10 μM (sepiapterin 5 μM), 48 h
Method: (§1) 2. Phenylalanine Hydroxylase Enzyme Activity Assay
(§2) This assay was completed in cell culture to analyze the enzyme activity in the presence of compounds. In brief, wild-type or Arg261Gln PAH constructs were transiently expressed in COS7-cells in a 96 well format reflecting the PAH genotype (COS7 cell line has no endogenous PAH). Cells were treated with the compounds at a final concentration of 10 μM and the enzyme activity of PAH was analyzed 48 h after transfection. The effect of the compounds on the residual enzyme activity was determined in comparison to non-treated cells (NCC, only compound solvent final 0.1%). To normalize the cellular background signal non transfected cells (NT control) were treated with compound or solvent equally for 48 h. As a positive control we used sepiapterin, a stable precursor of BH4 (CAS 17094-01-8), stabilized in 100 mM DTT, in a final concentration of 5 μM.
(§3) PAH activities were assayed at 25° C. as previously described (Gersting, S. W., J. Biol. Chem., 2010, 285(40), 30686-30697) with modifications. The standard mixture contained 22.35 mM NaHepes, pH 7.0, […] catalase, 10 μM ferrous ammonium sulphate, and 1 mM L-Phe (L-phenylalanine) final. Assay mixture and cell culture enzyme were pre-incubated for 5 min and the reaction was initiated by the addition of 75 μM BH4 (stabilized in 100 mM dithiothreitol) final, run for 60 min and stopped by acetic acid. The amount of L-tyrosine production was measured and quantified by HPLC, assayed as triplicates.
(§4) The effect of compound on PAH enzyme activity was calculated from triplicates as follows: first the background of the NT cells were subtracted from the transfected cells (treated or NCC) and then the percentage of treated (compound) versus NCC was determined. Enzyme activity greater than 100% represents an increase in the enzyme activity with respect to NCC.

wild-type PAH [2] = molecular target: T2, wild-type PAH (Homo sapiens (Human), UniProt P00439); assay: as above; details: compound 10 μM (sepiapterin 5 μM), 48 h
Method: as §1, §2, §3, §4

Arg261Gln (R261Q) PAH [3] = molecular target: T1, Arg261Gln (R261Q) PAH; assay: Phenylalanine hydroxylase residual protein amount (dot blot, COS-7 lysates); details: COS-7, 48 h, COS-7 cells, compound 10 μM (sepiapterin 5 μM), read-out: PAH protein level (immune blot signal) R261Q PAH Mean
Method: (§5) 3. Phenylalanine Hydroxylase Residual Protein Amount
(§6) The analysis of the residual PAH protein amount was based on the method described in Gersting S. W. et al., Human Molecular Genetics, 2010, 19(10), 2039-2049 with modifications.
(§7) Detection of the residual PAH protein amount was performed as a dot blot using the lysates obtained from the cell culture where transiently transfected COS-7 cells (with wild-type PAH or PAH variant) were exposed for 48 h to compounds. The experiment was carried out from the same samples as used for measuring enzyme activities.
(§8) 2 μl of the lysate were dropped onto the nitrocellulose membrane. The membrane was allowed to air dry at room temperature for 30 min followed by 40 min blocking in 5% milk in TBS-Tween (room temperature). The membrane was incubated with the mouse monoclonal primary antibody specific for PAH (Millipore, Cat. No. MAB5278, 1:1000 dilution in 5% milk in TBS-Tween) for overnight at 4° C. Next, the membrane was washed (3×10 min in TBS-Tween) and incubated with the secondary HRP-conjugated antibody (anti-mouse antibody; Santa Cruz Biotechnology, Inc., Cat. No. sc-2005; 1:1000 dilution in 5% milk in TBS-Tween) followed by thorough washing in TBS-Tween (3×10 min) and distilled water (1×10 min). Blots were visualized with Pierce™ ECL substrate (ThermoFisher Scientific, Cat No. 32106) and chemiluminescence was monitored with a DIANA III Imaging system or ChemiDoc™ MP Imaging System (BioRad). To analyze the compound effect on the PAH protein amount densitometry analysis was performed using ImageJ Software.
(§9) The effect of compound on PAH protein amount was calculated from triplicates. As for determination of the enzyme activity the background of the not transfected cells (NT) was subtracted from the transfected cells (NCC or compound treated). In the next step delta of the NCC versus compound treated cells was calculated. Residual protein amount greater than 100% represents an increase in the stability of the enzyme with respect to NCC.

wild-type PAH [4] = molecular target: T2, wild-type PAH; assay: as above; details: COS-7, 48 h, COS-7 cells, compound 10 μM (sepiapterin 5 μM), read-out: PAH protein level (immune blot signal) WT PAH Mean
Method: as §5, §6, §7, §8, §9

T2 sequence (P00439 whole entry): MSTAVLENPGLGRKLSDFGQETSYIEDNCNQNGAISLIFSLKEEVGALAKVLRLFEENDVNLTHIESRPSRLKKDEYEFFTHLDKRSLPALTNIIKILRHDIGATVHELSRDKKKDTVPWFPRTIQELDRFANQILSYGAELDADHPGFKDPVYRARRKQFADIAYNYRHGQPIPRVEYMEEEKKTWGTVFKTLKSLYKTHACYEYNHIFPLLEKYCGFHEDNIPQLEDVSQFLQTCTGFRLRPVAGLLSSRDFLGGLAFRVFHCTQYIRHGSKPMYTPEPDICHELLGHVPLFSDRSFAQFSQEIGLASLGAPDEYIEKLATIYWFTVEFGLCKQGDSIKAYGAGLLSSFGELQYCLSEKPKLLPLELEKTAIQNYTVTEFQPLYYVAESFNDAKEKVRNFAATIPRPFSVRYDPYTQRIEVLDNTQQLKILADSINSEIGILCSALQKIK
T1 sequence (P00439 whole entry R261Q): as the sequence (P00439 whole entry) above, with R261Q counted along it

Row | PAH enzyme activity (L-Tyrosine formation) R261Q PAH Mean (Arg261Gln (R261Q) PAH [1]) | PAH enzyme activity (L-Tyrosine formation) WT PAH Mean (wild-type PAH [2]) | PAH protein level (% of control) at 10 µM (Arg261Gln (R261Q) PAH [3]) | PAH protein level (% of control) at 10 µM (wild-type PAH [4]) | Compound
1 | 531.60 % NCC | 284.15 % NCC | 256% | 108% | Cc1ccc2[nH]c(N)nc(=O)c2c1Sc1ccncc1 [Nolatrexed 2HCl, 2-amino-6-methyl-5-(4-pyridylthio)-4(3H)-quinazolinone]
2 | 2089.79 % NCC | 297.14 % NCC | – | 106% | C[C@H](O)C(=O)C1=Nc2c([nH]c(N)nc2=O)NC1 [Sepiapterin, S-(−)-2-amino-7,8-dihydro-6-(2-hydroxy-1-oxopropyl)-4(1H)-pteridinone]
3 | 131.23 % NCC | 104.71 % NCC | – | – | CCN1CCCC1CNC(=O)c1cc(S(=O)(=O)CC)ccc1OC (stereo not drawn) [Sultopride HCl, N-[(1-ethyl-2-pyrrolidinyl)methyl]-5-(ethylsulfonyl)-o-anisamide]
